Data taken from patent US8778871B2 (Takeda Pharmaceutical Company Limited, priority 2004, dated 2014).
Non-standard residues stand in square brackets, D forms with d. Residues, ends and D or L forms follow the SMILES beside them. *: point of attachment. Propanoyl(3-indol-3-yl) = O=C(CCc1c[nH]c2ccccc12)*; 2Nal = N[C@@H](Cc1ccc2ccccc2c1)C(=O)O; Arg(Me) = CNC(=N)NCCC[C@H](N)C(=O)O; X4 = NC(=S)[C@H](Cc1ccccc1)N*; Abu = CC[C@H](N)C(=O)O; azaGly = NNC(=O)O

Experiments:
[1] = target: T1, hOT7T175 (Homo sapiens, UniProt Q969F8, L364H); assay: Intracellular Ca ion level-increasing activity using FLIPR (180 seconds; specific activity to Metastin (1-54)); type: cell-based; conditions: hOT7T175/CHO, relative to Metastin (1-54) = 1
T1 construct: expressed in transfected cells
T1 sequence (Q969F8 whole entry L364H): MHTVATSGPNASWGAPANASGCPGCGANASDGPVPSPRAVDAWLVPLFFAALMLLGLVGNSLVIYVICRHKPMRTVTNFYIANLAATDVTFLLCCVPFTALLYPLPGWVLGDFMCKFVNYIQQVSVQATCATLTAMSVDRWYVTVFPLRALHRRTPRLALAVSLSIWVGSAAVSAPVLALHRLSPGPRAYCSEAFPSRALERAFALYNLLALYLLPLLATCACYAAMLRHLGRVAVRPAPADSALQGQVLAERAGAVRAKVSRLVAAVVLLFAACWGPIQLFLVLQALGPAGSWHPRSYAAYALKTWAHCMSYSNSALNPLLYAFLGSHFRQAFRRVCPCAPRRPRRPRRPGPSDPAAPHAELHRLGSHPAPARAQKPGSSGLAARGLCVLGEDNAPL

[2] = target: T1, hOT7T175; type: cell-based; conditions: hOT7T175/CHO, FLIPR, evaluation for 40 seconds after initiation of the reaction
Description: The intracellular Ca ion level-increasing activity was measured using FLIPR as in TEST EXAMPLE 2.

Compound | Specific Act. (intracellular Ca ion level-increasing activity, specific activity to Metastin (1-54)) [1] | Specific Act. (EC50/MS10 EC50) [2]
CC(C)C[C@H](NC(=O)CNC(=O)[C@H](Cc1ccccc1)NC(=O)[C@H](CO)NC(=O)[C@H](CC(N)=O)NC(=O)[C@H](Cc1c[nH]c2ccccc12)NC(=O)[C@H](CC(N)=O)NC(=O)[C@@H](N)Cc1ccc(O)cc1)C(=O)N[C@@H](CCCNC(=N)N)C(=O)N[C@@H](Cc1ccccc1)C(N)=S [Compound No. 128] (H-YNWNSFGLR-X4) | 10 | 0.5
CNC(=N)NCCC[C@H](NC(=O)[C@H](CC(C)C)NC(=O)CNC(=O)[C@H](Cc1ccccc1)NC(=O)[C@H](CO)NC(=O)[C@H](CC(N)=O)NC(=O)[C@H](Cc1c[nH]c2ccccc12)NC(=O)[C@H](N)Cc1ccc(O)cc1)C(=O)N[C@@H](Cc1ccccc1)C(N)=O [Compound No. 217] (H-[dY]WNSFGL[Arg(Me)]F-NH2) | 20 | 3.1
CC(C)C[C@H](NC(=O)CNC(=O)[C@H](Cc1ccc2ccccc2c1)NC(=O)[C@H](CO)NC(=O)[C@H](CC(N)=O)NC(=O)[C@H](Cc1c[nH]c2ccccc12)NC(=O)[C@H](CC(N)=O)NC(=O)[C@@H](N)Cc1ccc(O)cc1)C(=O)N[C@@H](CCCNC(=N)N)C(=O)N[C@@H](Cc1ccccc1)C(N)=O [Compound No. 152, Tyr-Asn-Trp-Asn-Ser-Nal(2)-Gly-Leu-Arg-Phe-NH2] (H-YNWNS[2Nal]GLRF-NH2) | 5 | 1.4
H-YNWNSFGLRY-NH2 [Compound No. 109] | 20 | 2.6
CC[C@H](NC(=O)CNC(=O)[C@H](Cc1ccccc1)NC(=O)[C@H](CO)NC(=O)[C@H](CC(N)=O)NC(=O)[C@H](Cc1c[nH]c2ccccc12)NC(=O)[C@H](CC(N)=O)NC(=O)[C@@H](N)Cc1ccc(O)cc1)C(=O)N[C@@H](CCCNC(=N)N)C(=O)N[C@@H](Cc1ccccc1)C(N)=O [Compound No. 187, Tyr-Asn-Trp-Asn-Ser-Phe-Gly-Abu-Arg-Phe-NH2] (H-YNWNSFG[Abu]RF-NH2) | 1 | 1.9
CC(C)C[C@H](NC(=O)CNC(=O)[C@H](Cc1ccccc1)NC(=O)[C@H](CO)NC(=O)[C@H](CC(N)=O)NC(=O)[C@H](Cc1c[nH]c2ccccc12)NC(=O)[C@@H](CC(N)=O)NC(=O)[C@@H](N)Cc1ccc(O)cc1)C(=O)N[C@@H](CCCNC(=N)N)C(=O)N[C@@H](Cc1ccccc1)C(N)=O [Compound No. 41] | 10 | 2.7
CC(C)C[C@H](NC(=O)CNC(=O)[C@H](Cc1ccccc1)NC(=O)[C@H](CO)NC(=O)[C@H](CC(N)=O)NC(=O)[C@H](Cc1c[nH]c2ccccc12)NC(=O)[C@H](CC(N)=O)NC(=O)[C@H](N)Cc1ccc(O)cc1)C(=O)N[C@@H](CCCNC(=N)N)C(=O)N[C@@H](Cc1ccccc1)C(N)=O [Compound No. 42] | 30 | 1.6
CC(C)C[C@H](NC(=O)CNC(=O)[C@H](Cc1ccccc1)NC(=O)[C@H](CO)NC(=O)[C@H](CC(N)=O)NC(=O)CCc1c[nH]c2ccccc12)C(=O)N[C@@H](CCCNC(=N)N)C(=O)N[C@@H](Cc1ccccc1)C(N)=O [Compound No. 114, 3-(3-Indolyl)propionyl-Asn-Ser-Phe-Gly-Leu-Arg-Phe-NH2] ({Propanoyl(3-indol-3-yl)}-NSFGLRF-NH2) | 3 | 4.1
CNC(=N)NCCC[C@H](NC(=O)[C@H](CC(C)C)NC(=O)NNC(=O)[C@H](Cc1ccccc1)NC(=O)[C@H](CO)NC(=O)[C@H](CC(N)=O)NC(=O)[C@@H](Cc1c[nH]c2ccccc12)NC(=O)[C@H](N)Cc1ccc(O)cc1)C(=O)N[C@@H](Cc1ccccc1)C(N)=O [Compound No. 242, D-Tyr-D-Trp-Asn-Ser-Phe-AzaGly-Leu-Arg(Me)-Phe-NH2] (H-[dY][dW]NSF[azaGly]L[Arg(Me)]F-NH2) | 2 | 1.4
CNC(=N)NCCC[C@H](NC(=O)[C@H](CC(C)C)NC(=O)CNC(=O)[C@H](Cc1ccccc1)NC(=O)[C@H](CO)NC(=O)[C@H](CC(N)=O)NC(=O)[C@H](Cc1c[nH]c2ccccc12)NC(=O)[C@H](CC(N)=O)NC(=O)[C@H](N)Cc1ccc(O)cc1)C(=O)N[C@@H](Cc1c[nH]c2ccccc12)C(N)=O [Compound No. 174] (H-[dY]NWNSFGL[Arg(Me)]W-NH2) | 10 | 2.3
CC[C@H](C)[C@H](NC(=O)[C@H](CC(N)=O)NC(=O)[C@H](N)Cc1ccc(O)cc1)C(=O)N[C@@H](CC(N)=O)C(=O)N[C@@H](CO)C(=O)N[C@@H](Cc1ccccc1)C(=O)NCC(=O)N[C@@H](CC(C)C)C(=O)N[C@@H](CCCNC(=N)NC)C(=O)N[C@@H](Cc1ccccc1)C(N)=O [Compound No. 206] (H-[dY]NINSFGL[Arg(Me)]F-NH2) | 10 | 4.8
CNC(=N)NCCC[C@H](NC(=O)[C@H](CC(C)C)NC(=O)NNC(=O)[C@H](Cc1ccccc1)NC(=O)[C@H](CO)NC(=O)[C@H](CC(N)=O)NC(=O)[C@H](Cc1c[nH]c2ccccc12)NC(=O)[C@H](N)Cc1ccc(O)cc1)C(=O)N[C@@H](Cc1ccccc1)C(N)=O [Compound No. 222, D-Tyr-Trp-Asn-Ser-Phe-AzaGly-Leu-Arg(Me)-Phe-NH2] (H-[dY]WNSF[azaGly]L[Arg(Me)]F-NH2) | 10 | 2.7
CC(C)C[C@H](NC(=O)CNC(=O)[C@H](Cc1ccccc1)NC(=O)[C@H](CO)NC(=O)[C@H](CC(N)=O)NC(=O)[C@H](Cc1c[nH]c2ccccc12)NC(=O)[C@H](CC(N)=O)NC(=O)[C@@H](N)Cc1ccc(O)cc1)C(=O)N[C@@H](CCCCNC(=N)N)C(=O)N[C@@H](Cc1ccccc1)C(N)=O [Compound No. 97] | 10 | 2.9
CNC(=N)NCCC[C@H](NC(=O)[C@H](CC(C)C)NC(=O)CNC(=O)[C@H](Cc1ccccc1)NC(=O)[C@H](CO)NC(=O)[C@@H](NC(=O)[C@H](Cc1c[nH]c2ccccc12)NC(=O)[C@H](CC(N)=O)NC(=O)[C@H](N)Cc1ccc(O)cc1)[C@@H](C)O)C(=O)N[C@@H](Cc1ccccc1)C(N)=O [Compound No. 208] (H-[dY]NWTSFGL[Arg(Me)]F-NH2) | 1 | 7.3
